A word on the IC50: it is the point on the concentration scale where inhibition reaches its midpoint.

In one experiment the test system is NCI-H358 (K-Ras G12C). In words: CellTiter-Glo cell viability assay, 5-day treatment. Format: cell-based. Conditions: Homo sapiens, NCI-H358, 120 h, 5-day treatment; read-out: H358 Cell Viability assay data (K-Ras G12C, IC50). An outline of the steps: (§1)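 Compounds were dispensed directly onto seeded cells and incubated for 5 days, then plates were equilibrated to room temperature for about 30 minutes before luminescence reading. Signals were expressed as percent of the mean DMSO control and fitted with a four-parameter logistic curve.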
On the technique in general: In ATP-based viability assays light output follows the ATP content of the culture.

The test system of a further experiment is Capan-1 (K-Ras G12V). The experiment is described as above. The class given is cell-based. The settings on record: Homo sapiens, CAPAN-1, 120 h, 5-day treatment; read-out: Capan-1 Cell Viability assay data (K-Ras G12V, IC50). An outline of the steps:
as §1

Another experiment deals with KRAS G12V (Homo sapiens, UniProt P01116+P62937, G12V). In words: Disruption of BRAF RBD interaction with Ras (FRET / MOA assay, with Cyclophilin A). Conditions: KRAS G12V; read-out: KRAS G12V FRET data IC50. Format: biochemical. In a few lines:
(§2)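 Cyclophilin A-dependent ternary complex assay. K-Ras loaded with nucleotide; BRAF RBD as effector. Cpd top 30 μM final, 3 h at 25 °C. Readout: TR-FRET ratio, IC50.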

The target of the next experiment is KRAS WT (Homo sapiens, UniProt P01116+P62937). Described as above. Format: biochemical. Conditions: KRAS WT; read-out: KRAS WT FRET data IC50. An outline of the steps: as §2
Another experiment deals with KRAS G13D (Homo sapiens, UniProt P01116+P62937, G13D). The experiment is described as above. The settings on record: KRAS G13D; read-out: KRAS G13D FRET data IC50. The class given is biochemical. In a few lines: as §2
The target of a further experiment is KRAS G12D (Homo sapiens, UniProt P01116+P62937, G12D). The experiment is described as above. Format: biochemical. Conditions: read-out: KRAS G12D FRET data, IC50. An outline of the steps:
as §2

In a further experiment the target is KRAS G13C (Homo sapiens, UniProt P01116+P62937, G13C). Described as above. Format: biochemical. The settings on record: read-out: KRAS G13C FRET data, IC50. An outline of the steps: as §2
The next experiment has as its target NRAS G12C (Homo sapiens, UniProt P01111+P62937, G12C). Described as above. Format: biochemical. Conditions: NRAS G12C; read-out: NRAS G12C FRET data IC50.
A further experiment concerns the target KRAS G12C (Homo sapiens, UniProt P01116+P62937, G12C). Described as above. The settings on record: read-out: KRAS G12C FRET data, IC50. The class given is biochemical. In a few lines: as §2
The target of the next experiment is KRAS G12S (Homo sapiens, UniProt P01116+P62937, G12S). Described as above. The settings on record: read-out: KRAS G12S FRET data, IC50. Format: biochemical. In a few lines: as §2
The next experiment has as its target NRAS Q61K (Homo sapiens, UniProt P01111+P62937, Q61K). The experiment is described as above. Format: biochemical. Conditions: NRAS Q61K; read-out: NRAS Q61K FRET data IC50. An outline of the steps:
(§3)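 IC50 reflects compound-driven Ras:Cyclophilin A ternary complex displacing BRAF RBD, read as lowered TR-FRET ratio relative to DMSO after Eu anti-His (10 nM) and APC anti-GST (50 nM) detection for 1.5 h. Prior incubation 3 h, 25° C, with 12.5 nM GMPPNP-loaded Ras, 50 nM BRAF RBD, 25 μM Cyclophilin A; top compound 30 μM.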

A further experiment concerns the target KRAS Q61H (Homo sapiens, UniProt P01116+P62937, Q61H). The experiment is described as above. The class given is biochemical. The settings on record: KRAS Q61H; read-out: KRAS Q61H FRET data IC50. An outline of the steps: as §3
A further experiment concerns the target NRAS Q61R (Homo sapiens, UniProt P01111+P62937, Q61R). The experiment is described as above. The class given is biochemical. Conditions: NRAS Q61R; read-out: NRAS Q61R FRET data IC50. An outline of the steps:
as §3

For the next experiment, the target named is NRAS WT (Homo sapiens, UniProt P01111+P62937). Described as above. Conditions: NRAS WT; read-out: NRAS WT FRET data IC50. Format: biochemical. In a few lines:
as §3

Bounds are passed on as bounds.

Chain of KRAS G13C (P01116 1-169 isoform P01116-2 G13C): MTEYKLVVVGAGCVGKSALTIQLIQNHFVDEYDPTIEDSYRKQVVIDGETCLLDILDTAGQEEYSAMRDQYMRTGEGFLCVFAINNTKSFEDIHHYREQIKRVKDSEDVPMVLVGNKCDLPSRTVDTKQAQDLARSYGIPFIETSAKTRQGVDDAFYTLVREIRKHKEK
Chain of KRAS G13C (P62937 whole entry): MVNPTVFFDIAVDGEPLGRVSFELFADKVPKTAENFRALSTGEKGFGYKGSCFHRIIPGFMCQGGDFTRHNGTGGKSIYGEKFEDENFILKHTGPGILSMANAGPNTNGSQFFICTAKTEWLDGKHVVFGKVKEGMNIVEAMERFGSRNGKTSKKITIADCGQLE
Chain of KRAS G12V (P01116 1-169 isoform P01116-2 G12V limits assumed): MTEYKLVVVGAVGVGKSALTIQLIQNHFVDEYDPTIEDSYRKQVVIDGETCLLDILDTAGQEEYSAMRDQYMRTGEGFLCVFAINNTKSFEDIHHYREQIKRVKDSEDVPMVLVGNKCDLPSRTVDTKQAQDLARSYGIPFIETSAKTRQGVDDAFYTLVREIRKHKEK
Chain of KRAS G12V (P62937 whole entry): as the sequence (P62937 whole entry) above
Chain of KRAS G13D (P01116 1-169 isoform P01116-2 G13D limits assumed): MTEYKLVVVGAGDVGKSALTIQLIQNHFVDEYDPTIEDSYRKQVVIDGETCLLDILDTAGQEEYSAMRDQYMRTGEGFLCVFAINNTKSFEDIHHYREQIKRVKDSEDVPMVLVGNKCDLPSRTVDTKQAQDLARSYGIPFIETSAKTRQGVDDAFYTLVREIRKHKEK
Chain of KRAS G13D (P62937 whole entry): as the sequence (P62937 whole entry) above
Chain of KRAS WT (P01116 1-169 isoform P01116-2 limits assumed): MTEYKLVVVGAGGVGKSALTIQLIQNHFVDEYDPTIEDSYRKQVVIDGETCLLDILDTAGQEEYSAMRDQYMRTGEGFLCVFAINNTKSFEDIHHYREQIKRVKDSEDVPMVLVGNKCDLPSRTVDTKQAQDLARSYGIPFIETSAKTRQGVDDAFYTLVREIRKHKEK
Chain of KRAS WT (P62937 whole entry): as the sequence (P62937 whole entry) above
Chain of NRAS Q61K (P01111 whole entry Q61K): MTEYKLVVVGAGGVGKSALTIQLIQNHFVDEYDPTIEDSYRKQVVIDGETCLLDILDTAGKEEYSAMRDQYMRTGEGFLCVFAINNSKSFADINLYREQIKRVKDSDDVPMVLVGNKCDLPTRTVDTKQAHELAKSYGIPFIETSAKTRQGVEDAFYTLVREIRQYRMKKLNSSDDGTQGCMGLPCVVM
Chain of NRAS Q61K (P62937 whole entry): as the sequence (P62937 whole entry) above
Chain of KRAS Q61H (P01116 1-169 isoform P01116-2 Q61H limits assumed): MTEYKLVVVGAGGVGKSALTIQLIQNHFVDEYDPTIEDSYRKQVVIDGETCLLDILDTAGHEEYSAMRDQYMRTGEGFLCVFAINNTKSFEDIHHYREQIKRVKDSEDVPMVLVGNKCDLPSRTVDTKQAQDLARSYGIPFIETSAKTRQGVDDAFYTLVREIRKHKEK
Chain of KRAS Q61H (P62937 whole entry): as the sequence (P62937 whole entry) above
Chain of KRAS G12C (P01116 1-169 isoform P01116-2 G12C): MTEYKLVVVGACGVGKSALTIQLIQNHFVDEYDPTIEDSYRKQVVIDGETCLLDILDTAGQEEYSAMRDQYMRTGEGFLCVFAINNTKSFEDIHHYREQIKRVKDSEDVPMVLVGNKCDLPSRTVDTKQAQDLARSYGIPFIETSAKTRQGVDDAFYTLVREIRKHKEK
Chain of KRAS G12C (P62937 whole entry): as the sequence (P62937 whole entry) above
Chain of NRAS G12C (P01111 whole entry G12C): as the sequence (P01111 whole entry Q61K) above, with G12C, K61Q counted along it
Chain of NRAS G12C (P62937 whole entry): as the sequence (P62937 whole entry) above
Chain of NRAS WT (P01111 whole entry): as the sequence (P01111 whole entry Q61K) above, with K61Q counted along it
Chain of NRAS WT (P62937 whole entry): as the sequence (P62937 whole entry) above
Chain of KRAS G12S (P01116 1-169 isoform P01116-2 G12S limits assumed): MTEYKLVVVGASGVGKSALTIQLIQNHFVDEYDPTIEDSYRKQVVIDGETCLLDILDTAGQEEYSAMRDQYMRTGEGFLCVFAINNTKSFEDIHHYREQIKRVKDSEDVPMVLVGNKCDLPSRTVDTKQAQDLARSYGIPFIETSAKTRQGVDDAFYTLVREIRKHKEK
Chain of KRAS G12S (P62937 whole entry): as the sequence (P62937 whole entry) above
Chain of NRAS Q61R (P01111 whole entry Q61R): as the sequence (P01111 whole entry Q61K) above, with K61R counted along it
Chain of NRAS Q61R (P62937 whole entry): as the sequence (P62937 whole entry) above
Chain of KRAS G12D (P01116 1-169 isoform P01116-2 G12D limits assumed): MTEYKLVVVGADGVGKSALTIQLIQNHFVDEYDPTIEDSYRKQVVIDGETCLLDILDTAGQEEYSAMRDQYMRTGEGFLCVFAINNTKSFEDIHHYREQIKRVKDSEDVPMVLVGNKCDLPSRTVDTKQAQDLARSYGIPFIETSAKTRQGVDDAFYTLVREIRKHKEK
Chain of KRAS G12D (P62937 whole entry): as the sequence (P62937 whole entry) above

On to `CCn1c(-c2cccnc2[C@H](C)OC)c2c3cc(ccc31)-c1csc(n1)C[C@H](NC(=O)[C@H](C(C)C)N(C)C(=O)N1C[C@H](OC)[C@@H](N)C1)C(=O)N1CCC[C@H](N1)C(=O)OCC(C)(C)C2` (atropisomer, axis not shown) [Example A580], for which the IC50 in the experiment with NCI-H358 (K-Ras G12C), in the experiment on Capan-1 (K-Ras G12V), at KRAS G12V, on KRAS WT, at KRAS G13D and at KRAS G12D was 0.1 to 1 µM each time. Further, the IC50 on KRAS G13C fell in the range of 0.1 to 1 µM; on NRAS G12C, 0.1 to 1 µM; at KRAS G12C, 0.1 to 1 µM; on KRAS G12S it was 0.1 to 1 µM; at NRAS Q61K, 0.01 to 0.1 µM; on KRAS Q61H, 0.1 to 1 µM. Moreover, the IC50 at NRAS Q61R and at NRAS WT was 0.1 to 1 µM throughout.

Take `CCn1c(-c2cc(N3CCN(C)CC3)cnc2[C@H](C)OC)c2c3cc(ccc31)-c1csc(n1)C[C@H](NC(=O)[C@H](C(C)C)N(C)C(=O)[C@@H]1OCC[C@@H]1c1ccccc1)C(=O)N1CCC[C@H](N1)C(=O)OCC(C)(C)C2` (atropisomer, axis not shown) [Example A583]: the IC50 was below 0.01 µM in the experiment on NCI-H358 (K-Ras G12C); below 0.01 µM with Capan-1 (K-Ras G12V); 0.1 to 1 µM on KRAS G12V; 0.1 to 1 µM on KRAS WT; 0.1 to 1 µM at KRAS G13D; 0.1 to 1 µM on KRAS G12D. In addition, the IC50 lay within 0.1 to 1 µM at KRAS G13C; 0.01 to 0.1 µM on NRAS G12C; 0.01 to 0.1 µM on KRAS G12C; 0.1 to 1 µM on KRAS G12S; 0.1 to 1 µM at NRAS Q61K; 0.01 to 0.1 µM at KRAS Q61H. Besides, the IC50 on NRAS Q61R was 0.01 to 0.1 µM; at NRAS WT, 0.1 to 1 µM.

On to `CCn1c(-c2cc(N3CCN(C)CC3)cnc2[C@H](C)OC)c2c3cc(ccc31)-c1cc(O)cc(c1)C[C@H](NC(=O)[C@H](C(C)C)N(C)C(=O)[C@@H]1OCC[C@@H]1c1ccccc1)C(=O)N1CCC[C@H](N1)C(=O)OCC(C)(C)C2` (atropisomer, axis not shown) [Example A594], for which the IC50 is below 0.01 µM with NCI-H358 (K-Ras G12C); below 0.01 µM in the experiment on Capan-1 (K-Ras G12V); 0.01 to 0.1 µM at KRAS G12V; below 0.01 µM at KRAS WT; 0.01 to 0.1 µM on KRAS G13D; 0.01 to 0.1 µM on KRAS G12D. Further, the IC50 at KRAS G13C was below 0.01 µM; on NRAS G12C, below 0.01 µM; on KRAS G12C, below 0.01 µM; at KRAS G12S, below 0.01 µM; on NRAS Q61K, 0.01 to 0.1 µM; at KRAS Q61H, below 0.01 µM. The half-inhibitory concentration (IC50) at NRAS Q61R and at NRAS WT was below 0.01 µM throughout.

For the compound `CCn1c(-c2cccnc2[C@H](C)OC)c2c3cc(ccc31)-c1csc(n1)C[C@H](NC(=O)[C@H](C(C)C)N(C)C(=O)N1CCN(C(=O)[C@H]3CCCN3C)CC1)C(=O)N1CCC[C@H](N1)C(=O)OCC(C)(C)C2` (atropisomer, axis not shown) [Example A595], the IC50 was in the range of 0.01 to 0.1 µM in the experiment with NCI-H358 (K-Ras G12C); 0.1 to 1 µM in the experiment with Capan-1 (K-Ras G12V); 0.1 to 1 µM on KRAS G12V; 0.1 to 1 µM at KRAS WT; 0.1 to 1 µM on KRAS G13D; 0.1 to 1 µM at KRAS G12D. In addition, the IC50 is 0.1 to 1 µM at KRAS G13C; 0.01 to 0.1 µM at NRAS G12C; 0.01 to 0.1 µM on KRAS G12C; 0.1 to 1 µM at KRAS G12S; 0.01 to 0.1 µM on NRAS Q61K; 0.01 to 0.1 µM at KRAS Q61H. For the same compound, the IC50 on NRAS Q61R and at NRAS WT was 0.1 to 1 µM each time.

In the case of `CCn1c(-c2cccnc2[C@H](C)OC)c2c3cc(ccc31)-c1csc(n1)C[C@H](NC(=O)[C@H](C(C)C)N(C)C(=O)N1CCC13CCOCC3)C(=O)N1CCC[C@H](N1)C(=O)OCC(C)(C)C2` (atropisomer, axis not shown) [Example A601], the IC50 in the experiment on NCI-H358 (K-Ras G12C) lay in the range of 0.01 to 0.1 µM; with Capan-1 (K-Ras G12V), 0.01 to 0.1 µM; on KRAS G12V, 0.1 to 1 µM; at KRAS WT, 0.1 to 1 µM; at KRAS G13D, 0.1 to 1 µM; at KRAS G12D, 0.1 to 1 µM. Also, the IC50 is 0.1 to 1 µM at KRAS G13C; 0.01 to 0.1 µM at NRAS G12C; 0.01 to 0.1 µM on KRAS G12C; 0.1 to 1 µM on KRAS G12S; 0.01 to 0.1 µM at NRAS Q61K; 0.01 to 0.1 µM on KRAS Q61H. For the same compound, the concentration for half-maximal inhibition (IC50) at NRAS Q61R lay in the range of 0.01 to 0.1 µM; at NRAS WT, 0.1 to 1 µM.

For `CCn1c(-c2cccnc2[C@H](C)OC)c2c3cc(ccc31)-c1cc(O)cc(c1)C[C@H](NC(=O)[C@H](C(C)C)N(C)C(=O)[C@@H]1CCN[C@@H]1c1ccccc1)C(=O)N1CCC[C@H](N1)C(=O)OCC(C)(C)C2` (atropisomer, axis not shown) [Example A605], the IC50 in the experiment with NCI-H358 (K-Ras G12C) was 0.01 to 0.1 µM; in the experiment with Capan-1 (K-Ras G12V), 0.1 to 1 µM; on KRAS G12V, 0.01 to 0.1 µM; on KRAS WT it was 0.01 to 0.1 µM; at KRAS G13D, 0.01 to 0.1 µM; at KRAS G12D, 0.01 to 0.1 µM. The IC50 at KRAS G13C is 0.01 to 0.1 µM; on NRAS G12C it was 0.01 to 0.1 µM; on KRAS G12C, 0.01 to 0.1 µM; at KRAS G12S it was 0.01 to 0.1 µM; at NRAS Q61K it was 0.1 to 1 µM; on KRAS Q61H it was below 0.01 µM. In addition, the IC50 fell in the range of 0.1 to 1 µM on NRAS Q61R and 0.01 to 0.1 µM on NRAS WT.

For the compound `CCn1c(-c2cccnc2[C@H](C)OC)c2c3cc(ccc31)-c1csc(n1)C[C@H](NC(=O)[C@H](C(C)C)N(C)C(=O)N1CCN(C(=O)C3COC3)CC1)C(=O)N1CCC[C@H](N1)C(=O)OCC(C)(C)C2` (atropisomer, axis not shown) [Example A606], the IC50 in the experiment with NCI-H358 (K-Ras G12C) was below 0.01 µM; in the experiment with Capan-1 (K-Ras G12V) it was 0.01 to 0.1 µM; on KRAS G12V, 0.1 to 1 µM; at KRAS WT, 0.01 to 0.1 µM; on KRAS G13D it was 0.1 to 1 µM; at KRAS G12D, 0.1 to 1 µM. Further, the IC50 lay within 0.1 to 1 µM on KRAS G13C; 0.01 to 0.1 µM at NRAS G12C; 0.01 to 0.1 µM at KRAS G12C; 0.01 to 0.1 µM at KRAS G12S; 0.01 to 0.1 µM at NRAS Q61K; 0.01 to 0.1 µM on KRAS Q61H. In addition, the IC50 on NRAS Q61R and at NRAS WT was 0.01 to 0.1 µM each time.

With `CCn1c(-c2cccnc2[C@H](C)OC)c2c3cc(ccc31)-c1csc(n1)C[C@H](NC(=O)[C@H](C(C)C)N(C)C(=O)N1CC(C3CN(C)C3)C1)C(=O)N1CCC[C@H](N1)C(=O)OCC(C)(C)C2` (atropisomer, axis not shown) [Example A608], the IC50 with NCI-H358 (K-Ras G12C) lay within 0.1 to 1 µM; in the experiment with Capan-1 (K-Ras G12V) it was 0.01 to 0.1 µM; on KRAS G12V, 0.1 to 1 µM; on KRAS WT it was 0.1 to 1 µM; on KRAS G13D, 0.1 to 1 µM; on KRAS G12D it was 0.1 to 1 µM. Moreover, the IC50 lay within 0.1 to 1 µM on KRAS G13C; 0.01 to 0.1 µM on NRAS G12C; 0.01 to 0.1 µM at KRAS G12C; 0.1 to 1 µM at KRAS G12S; 0.01 to 0.1 µM at NRAS Q61K; 0.01 to 0.1 µM on KRAS Q61H. Also, the IC50 on NRAS Q61R and on NRAS WT was 0.1 to 1 µM each time.

For the origin of these results see patent US20230233569A1 (Revolution Medicines, Inc., priority 2020, published 2023).
